Entries after “also recorded” stand apart in the source; their conditions may differ.
Columns and labels:
[1] = system: thyroid cancer cells TPC-1; assay: MTT antiproliferative assay; assay type: cell-based
Experimental: Thyroid cancer cells TCP-1 were provided by Wuhan Servicebio Co., Ltd. TCP-1 cells are cultured in RPMI-1640 medium supplemented with 10% foetal bovine serum (FBS), 100 U/mL penicillin, and 0.1 mg/mL streptomycin. All cells are maintained in a humidified incubator at 37 °C with 5% CO2.
The TCP-1 cell line is seeded into a 96-well plate and incubated under conditions of 37 °C and 5% CO2. After the cells adhere, different concentrations of compounds are added and the incubation continues for 48 h under the same conditions. Subsequently, MTT reagent is added to the medium and the incubation is continued for an additional 4 h at 37 °C. After the incubation, the medium is aspirated, and 150 μL of DMSO solution is added to dissolve the purple-blue crystals by shaking. The absorbance of the solution is measured at a wavelength of 490 nm. The IC50 value of the compounds is calculated using SPSS software version 20.0.

[2] = molecular target: T1, FAK (Homo sapiens, UniProt Q05397); assay: Kinase inhibition assay (Kinase-Glo Plus); assay type: biochemical; conditions: 10 µM ATP
Source text: It measures kinase activity by quantitating the amount of ATP remaining in solution following a kinase reaction. The luminescent signal from the assay is correlated with the amount of ATP present and is inversely correlated with the amount of kinase activity.

[3] = molecular target: ALK (Homo sapiens, UniProt Q9UM73); assay: Kinase inhibition assay (Kinase-Glo Plus); assay type: biochemical; conditions: Figure 3A; 10 µM ATP; read-out: IC50 (nmol/L) ALK
Experimental: (§1) The 50 µl reaction mixture contains 40 mM Tris, pH 7.4, 10 mM MgCl2, 0.1 mg/ml BSA, 1 mM DTT, 10 µM ATP, Kinase and the enzyme substrate. The compound was diluted in 10% DMSO and 5 µl of the dilution was added to a 50 µl reaction so that the final concentration of DMSO is 1% in all of the reactions. The assay was performed using a Kinase-Glo Plus luminescence kinase assay kit. It measures kinase activity by quantitating the amount of ATP remaining in solution following a kinase reaction. The luminescent signal from the assay is correlated with the amount of ATP present and is inversely correlated with the amount of kinase activity. The IC50 values were calculated using nonlinear regression with normalised dose-response fit using Prism GraphPad software.

[4] = molecular target: EGFR (Homo sapiens, UniProt P00533); assay: Kinase inhibition assay (Kinase-Glo Plus); assay type: biochemical; conditions: Figure 3A; 10 µM ATP; read-out: IC50 (nmol/L) EGFR
Experimental: as §1

[5] = molecular target: ROS1 (Homo sapiens, UniProt P08922); assay: Kinase inhibition assay (Kinase-Glo Plus); assay type: biochemical; conditions: Figure 3A; 10 µM ATP; read-out: IC50 (nmol/L) ROS1
Experimental: as §1

[6] = molecular target: T1, FAK; assay: Western blot of FAK and its phosphorylation sites in TPC-1 cells; assay type: cell-based; conditions: TPC-1 cells, 50, 100 and 200 nmol/L, 48 h
Experimental: Different concentrations of compound 14f are applied to TCP-1 cells for 48 h, after which the cells are collected and lysed in RIPA lysis buffer (Solarbio, R0010). Protein concentration is determined using the BCA Protein Concentration Assay Kit (Solarbio, PC0020). Proteins were denatured using 4X SDS-PAGE loading buffer (Solarbio, P1016) at 100 °C for 10 min. The denatured protein samples are separated by SDS-PAGE electrophoresis. Proteins are transferred from the gel to nitrocellulose (NC) membrane (Pall Corporation, P/N 66485) and blocked with 5% non-fat milk for 1 h at room temperature. After washing with TBST, the primary antibody is added and incubated overnight at 4 °C. The membrane is washed with TBST and then incubated with the secondary antibody at room temperature for 1–2 h. The membrane is washed again with TBST, and the protein bands are visualised using an ECL (Solarbio, PE0010) ultra-sensitive luminescent reagent, followed by imaging with a chemiluminescence imaging analyser (Cytiva, […] ImageQuant 800, JPN). The ladder used for Western Blot experiments was purchased from Thermo Scientific (Thermo Scientific, catalog number:26616). […]

[7] = system: thyroid cancer cells TPC-1; assay: EdU staining assay; assay type: cell-based; conditions: TPC-1 cells, 48 h
Experimental: TCP-1 cells are treated with compound 14f, followed by the addition of an equal volume of 1X EdU working solution to the drug-containing medium, and incubated under conditions of 37 °C and 5% CO2 for 4 h. After incubation, the cells are fixed with 4% paraformaldehyde for 15 min. The fixative is then removed, and the cells are permeabilized with PBS containing 0.3% Triton X-100 at room temperature. After washing, the Click reaction working solution is added and incubated at 37 °C for 30 min. The cells are then washed and stained with a prepared Hoechst staining solution for 10 min to stain the cell nuclei. After staining, the staining solution is removed, the cells are washed, and images are captured and saved using a fluorescence microscope.

[8] = system: TPC-1 cells; assay: Colony formation assay; assay type: cell-based; conditions: 5-day treatment
Experimental: TCP-1 cells are plated at a density of 10,000 to 20,000 cells per well in a 6-well plate. After cell adhesion, the cells are treated with different concentrations of compound 14f and cultured for 5 days in an incubator. At the end of the culture period, the medium is aspirated, and the cells are washed three times with PBS. The cells are then fixed with 4% paraformaldehyde for 20 min at room temperature. After fixation, the fixative is removed, and the cells are stained with 0.1% crystal violet at room temperature for 20 min. Following staining, the cells are rinsed with PBS until the purple colour is completely washed away, and then air-dried for image acquisition.

[9] = system: TPC-1 cells; assay: Cell cycle distribution; assay type: cell-based; conditions: 48-h treatment
[10] = system: thyroid cancer cells TPC-1; assay: Wound healing assay; assay type: cell-based; conditions: TPC-1 cells, various durations
Experimental: TCP-1 cells are seeded into a 6-well cell culture plate and cultured in an incubator at 37 °C with 5% CO2. Once the cells uniformly cover the bottom of the well, a vertical line is drawn in the centre of each well to mark the initial scratch. Fresh medium is replaced and different concentrations of 14f are added. Photographs are taken to document the healing at 0 h, 24 h, 36 h and 48 h post-scratch. Images are processed using ImageJ software. Data analysis is performed using GraphPad Prism software version 8.0.

[11] = system: thyroid cancer cells TPC-1; assay: Transwell migration assay; assay type: cell-based; conditions: TPC-1 cells, 48 h
Experimental: A 24-well plate is filled with 500 μL of RPMI-1640 medium containing 20% serum per well, and Transwell chambers are placed in the wells. TCP-1 cells are resuspended in serum-free medium and mixed with compound 14f, then added to the upper chamber of the Transwell chambers. The 24-well plates are incubated at 37 °C with 5% CO2 for 48 h. After incubation, the plates are removed, and the chambers are immersed in 4% paraformaldehyde and fixed at room temperature for 10 min. Following fixation, 0.1% crystal violet staining solution is added to the 24-well plates, and the chambers are stained at room temperature for 30 min. After staining, the plates are washed, the upper layer of cells is gently wiped off with a cotton swab, and the chambers are air-dried. Images are captured using a microscope.

T1 sequence (Q05397 whole entry, species assumed): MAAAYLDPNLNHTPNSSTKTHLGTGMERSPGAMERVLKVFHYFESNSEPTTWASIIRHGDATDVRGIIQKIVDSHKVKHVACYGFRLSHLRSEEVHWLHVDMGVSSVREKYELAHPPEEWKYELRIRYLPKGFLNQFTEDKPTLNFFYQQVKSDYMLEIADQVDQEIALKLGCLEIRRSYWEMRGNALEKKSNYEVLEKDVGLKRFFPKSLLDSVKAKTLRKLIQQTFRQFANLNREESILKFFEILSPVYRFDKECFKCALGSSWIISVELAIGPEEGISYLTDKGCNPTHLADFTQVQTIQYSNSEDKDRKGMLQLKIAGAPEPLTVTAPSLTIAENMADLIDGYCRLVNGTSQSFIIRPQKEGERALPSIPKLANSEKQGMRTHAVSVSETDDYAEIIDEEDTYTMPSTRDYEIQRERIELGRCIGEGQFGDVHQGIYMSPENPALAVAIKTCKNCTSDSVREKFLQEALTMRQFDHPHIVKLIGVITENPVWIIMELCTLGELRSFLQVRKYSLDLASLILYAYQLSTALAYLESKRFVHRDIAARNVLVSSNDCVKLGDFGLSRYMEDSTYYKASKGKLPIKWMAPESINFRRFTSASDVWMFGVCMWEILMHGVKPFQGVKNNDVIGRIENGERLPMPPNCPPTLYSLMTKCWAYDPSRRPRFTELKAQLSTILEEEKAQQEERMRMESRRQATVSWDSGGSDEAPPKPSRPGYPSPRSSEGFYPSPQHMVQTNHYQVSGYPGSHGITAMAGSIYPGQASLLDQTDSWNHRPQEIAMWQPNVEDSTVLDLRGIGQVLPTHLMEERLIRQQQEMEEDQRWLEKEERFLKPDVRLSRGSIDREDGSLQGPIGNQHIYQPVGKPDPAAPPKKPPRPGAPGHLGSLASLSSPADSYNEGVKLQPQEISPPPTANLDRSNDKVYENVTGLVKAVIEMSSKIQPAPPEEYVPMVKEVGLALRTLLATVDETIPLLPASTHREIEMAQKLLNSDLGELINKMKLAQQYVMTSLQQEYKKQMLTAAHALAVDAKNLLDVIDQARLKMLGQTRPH
Chain of ALK (Q9UM73 19-1620, species assumed): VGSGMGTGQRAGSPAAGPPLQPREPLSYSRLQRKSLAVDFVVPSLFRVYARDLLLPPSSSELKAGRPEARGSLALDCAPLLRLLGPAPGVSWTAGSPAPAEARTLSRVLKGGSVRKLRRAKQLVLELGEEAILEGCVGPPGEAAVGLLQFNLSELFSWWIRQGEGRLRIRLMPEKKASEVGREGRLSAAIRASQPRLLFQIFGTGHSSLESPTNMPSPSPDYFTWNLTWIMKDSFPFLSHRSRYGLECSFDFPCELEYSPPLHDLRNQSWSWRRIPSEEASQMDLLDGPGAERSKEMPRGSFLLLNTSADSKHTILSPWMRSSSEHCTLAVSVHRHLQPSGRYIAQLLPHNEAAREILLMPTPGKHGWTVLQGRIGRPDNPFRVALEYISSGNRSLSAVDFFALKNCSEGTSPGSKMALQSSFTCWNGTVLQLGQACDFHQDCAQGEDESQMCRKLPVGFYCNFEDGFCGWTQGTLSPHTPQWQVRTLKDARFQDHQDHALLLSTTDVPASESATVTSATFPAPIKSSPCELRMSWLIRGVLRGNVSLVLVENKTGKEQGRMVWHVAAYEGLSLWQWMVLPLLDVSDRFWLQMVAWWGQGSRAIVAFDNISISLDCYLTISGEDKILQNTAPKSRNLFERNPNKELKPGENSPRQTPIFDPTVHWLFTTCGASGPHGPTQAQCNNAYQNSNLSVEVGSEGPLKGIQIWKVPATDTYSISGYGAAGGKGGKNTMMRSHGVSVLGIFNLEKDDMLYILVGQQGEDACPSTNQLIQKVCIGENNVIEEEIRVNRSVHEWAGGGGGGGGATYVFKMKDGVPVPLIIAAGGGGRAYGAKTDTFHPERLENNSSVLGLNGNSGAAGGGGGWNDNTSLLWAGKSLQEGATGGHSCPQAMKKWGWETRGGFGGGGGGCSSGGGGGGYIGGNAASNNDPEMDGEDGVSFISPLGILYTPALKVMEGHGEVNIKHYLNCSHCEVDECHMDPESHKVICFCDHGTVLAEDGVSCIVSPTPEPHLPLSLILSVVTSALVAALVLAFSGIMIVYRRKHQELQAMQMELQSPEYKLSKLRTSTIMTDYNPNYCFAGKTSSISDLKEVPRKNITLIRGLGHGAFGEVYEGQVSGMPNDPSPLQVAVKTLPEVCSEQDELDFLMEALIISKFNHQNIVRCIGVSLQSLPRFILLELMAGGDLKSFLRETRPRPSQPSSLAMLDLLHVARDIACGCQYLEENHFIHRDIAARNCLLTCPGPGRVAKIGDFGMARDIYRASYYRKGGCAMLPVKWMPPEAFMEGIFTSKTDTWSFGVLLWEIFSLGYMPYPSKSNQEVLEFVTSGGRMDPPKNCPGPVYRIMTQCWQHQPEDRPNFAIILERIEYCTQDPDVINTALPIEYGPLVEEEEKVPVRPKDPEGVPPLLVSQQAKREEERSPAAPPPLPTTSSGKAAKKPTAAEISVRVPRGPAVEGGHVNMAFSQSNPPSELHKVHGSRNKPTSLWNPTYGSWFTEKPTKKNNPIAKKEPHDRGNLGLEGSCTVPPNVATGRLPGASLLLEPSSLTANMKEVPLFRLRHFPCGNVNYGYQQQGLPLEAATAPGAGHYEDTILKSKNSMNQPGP
Chain of EGFR (P00533 25-1210, species assumed): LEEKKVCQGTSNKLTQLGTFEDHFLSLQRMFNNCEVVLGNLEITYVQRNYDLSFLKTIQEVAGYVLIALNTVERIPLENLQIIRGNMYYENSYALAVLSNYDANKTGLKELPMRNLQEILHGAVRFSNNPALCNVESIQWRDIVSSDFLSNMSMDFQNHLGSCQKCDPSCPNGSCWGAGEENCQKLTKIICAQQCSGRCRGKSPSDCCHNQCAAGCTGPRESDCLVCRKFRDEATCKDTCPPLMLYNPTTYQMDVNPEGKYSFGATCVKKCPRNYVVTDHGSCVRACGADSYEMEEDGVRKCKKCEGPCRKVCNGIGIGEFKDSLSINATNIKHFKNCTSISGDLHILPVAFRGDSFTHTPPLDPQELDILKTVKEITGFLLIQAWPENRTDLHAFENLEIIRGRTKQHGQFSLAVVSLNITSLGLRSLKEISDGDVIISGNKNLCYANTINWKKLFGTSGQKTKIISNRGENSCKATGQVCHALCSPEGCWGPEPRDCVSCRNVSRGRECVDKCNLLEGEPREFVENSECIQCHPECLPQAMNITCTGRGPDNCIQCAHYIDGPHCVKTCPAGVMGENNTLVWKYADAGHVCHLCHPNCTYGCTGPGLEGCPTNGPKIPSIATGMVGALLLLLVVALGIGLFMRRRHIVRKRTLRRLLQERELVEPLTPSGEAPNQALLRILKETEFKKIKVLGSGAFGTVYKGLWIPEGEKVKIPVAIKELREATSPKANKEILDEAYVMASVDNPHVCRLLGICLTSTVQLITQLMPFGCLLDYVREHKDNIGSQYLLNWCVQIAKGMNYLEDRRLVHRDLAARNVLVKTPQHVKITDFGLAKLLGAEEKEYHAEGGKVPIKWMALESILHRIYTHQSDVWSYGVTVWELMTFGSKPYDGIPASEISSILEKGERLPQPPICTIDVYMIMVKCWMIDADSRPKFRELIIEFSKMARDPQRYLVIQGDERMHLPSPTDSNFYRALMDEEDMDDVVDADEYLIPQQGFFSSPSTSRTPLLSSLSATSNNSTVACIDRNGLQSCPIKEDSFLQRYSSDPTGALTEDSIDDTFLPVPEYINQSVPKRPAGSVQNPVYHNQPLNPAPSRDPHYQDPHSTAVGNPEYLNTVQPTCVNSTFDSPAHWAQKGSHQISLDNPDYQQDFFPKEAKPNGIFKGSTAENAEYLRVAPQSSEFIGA
Chain of ROS1 (P08922 1883-2347 limits assumed): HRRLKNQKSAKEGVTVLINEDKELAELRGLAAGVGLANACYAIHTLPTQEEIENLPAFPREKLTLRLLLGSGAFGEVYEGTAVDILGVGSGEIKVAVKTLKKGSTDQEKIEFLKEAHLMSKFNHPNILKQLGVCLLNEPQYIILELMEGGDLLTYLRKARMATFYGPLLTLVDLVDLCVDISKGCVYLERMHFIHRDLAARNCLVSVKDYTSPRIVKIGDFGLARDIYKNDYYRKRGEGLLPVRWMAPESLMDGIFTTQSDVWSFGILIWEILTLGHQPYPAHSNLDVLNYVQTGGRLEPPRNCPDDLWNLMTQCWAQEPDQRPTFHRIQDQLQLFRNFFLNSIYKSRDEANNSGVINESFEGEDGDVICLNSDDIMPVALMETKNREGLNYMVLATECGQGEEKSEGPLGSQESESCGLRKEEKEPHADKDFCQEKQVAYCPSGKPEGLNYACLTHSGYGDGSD

SMILES: CNC(=O)c1ccccc1Nc1nc(N/N=C/c2ccc(F)cc2)ncc1Cl [14f, (E)-2-((5-chloro-2–(2-(4-fluorobenzylidene)hydrazineyl)pyrimidin-4-yl)amino)-N-methylbenzamide]
- IC50 ([1]; Homo sapiens, TPC1, 48 h, MTT assay, 48 h, average with SD (n = 3, duplicate), read-out: IC50 (μM), antiproliferative activity against thyroid cancer cells TPC-1): 0.113 ± 0.003 µM
- times more potent than TAE-226 in TPC-1 cells ([1]; ratio of IC50 values, TPC-1 cells): approximately 8.57 times
- IC50 [2]: 35 nM
- IC50 [3]: 285 nmol/L
- IC50 [4]: > 1000 nmol/L
- IC50 [5]: 593 nmol/L
- expression level of FAK [6]: did not affect the expression level of FAK; also recorded: no significant changes
- number of cells positive for EdU [7]: significant reduction
- concentration from which colony formation is discernibly inhibited [8]: ≥ 100 nmol/L
- cell cycle distribution [9]: pronounced G1 phase arrest
- wound healing (cell migration) [10]: significant inhibitory effect on cell migration
- number of cells that traversed through the membrane [11]: significant reduction
- melting point: 176.1 to 177.8 °C

From PMC11578424, “Discovery of novel 2,4-diarylaminopyrimidine hydrazone derivatives as potent anti-thyroid cancer agents capable of inhibiting FAK” (Journal of Enzyme Inhibition and Medicinal Chemistry, 2024)
